Reference: US7816522B2, “Triazolone derivatives” (Eisai Co., Ltd., priority 2006, dated 2010)

Biological target: T1, human clotting factor VIIa (Homo sapiens, UniProt P08709)
T1 construct: a human clotting factor VIIa (hereinafter, “Factor VIIa”) purified sample; purchased Enzyme Research Laboratories HFVIIa
Assay: Inhibitory activity against clotting factor VIIa (chromogenic substrate Spectrozyme FVIIa, TF/Factor VIIa enzyme solution)
Format: biochemical
Details: human Factor VIIa 5 nmol/L with human TF 10 nmol/L, room temperature 40 minutes, 405 nm
Description: [Inhibitory Activity Against Clotting Factor VIIa]
Dimethylsulfoxide (DMSO) solutions were prepared with compounds of the invention at concentration of 10 mmol/L (10 mmol/L compound solutions).
One packet of tris-hydroxymethylaminomethane-preset (hereinafter referred to as “Tris preset”) (Product of Sigma Corp., Catalog No. T8293), 8.8 g of sodium chloride (NaCl) and 1 g of bovine serum albumin (hereinafter abbreviated as “BSA”) were dissolved in 1 L of water to prepare a Tris-BSA buffer (100 mmol/L Tris, 0.15 mol/L NaCl, 0.1% BSA, pH 7.4).
This Tris-BSA buffer (180 μL) was added to the aforementioned 10 mmol/L compound solution (20 μL). A 10-fold dilution series was prepared for this mixture using the aforementioned Tris-BSA buffer, and solutions with the compound at concentrations of 1.0 mmol/L, 100, 10, 1, 0.1, 0.01 and 0.001 μmol/L were prepared (1.0 mmol-0.001 μmol/L compound solutions). As a control, a solution was prepared by 10-fold dilution of DMSO with the Tris-BSA buffer (hereinafter referred to as “control 10% solution”).
After dissolving one packet of Tris preset, NaCl (8.8 g) and BSA (1 g) in water (about 900 mL), there were added 1 mol/L aqueous calcium chloride (CaCl2) (15 mL) and 1 mg/mL aqueous cephalin (30 mL), and the total volume was brought to 1 L by adding water. To this solution there was added a human tissue factor (hereinafter, “TF”) sample (product of Calbiochem, Catalog No. 612151) (450 μg) to a TF sample concentration of 10 nmol/L, and then a human clotting factor VIIa (hereinafter, “Factor VIIa”) purified sample (product of Enzyme Research Laboratories, Catalog No. HFVIIa) (250 μg) was added to a Factor VIIa purified sample concentration of 5 nmol/L, to prepare an enzyme solution (100 mmol/L Tris-HCl, 0.15 mol/L NaCl, 15 mmol/L CaCl2, 30 μg/mL cephalin, 1 mg/mL BSA, 10 nmol/L TF, 5 nmol/L Factor VIIa).
To 110 μL of this enzyme solution there was added 15 μL of each of the 1.0 mmol-0.001 μmol/L compound solutions, and then 25 μL of a 1.0 mmol/L synthetic chromogenic substrate solution (Spectrozyme FVIIa, product of American Diagnostica, Catalog No. 217L) was added and the mixture was allowed to stand at room temperature for 40 minutes. Next, the amount of 4-nitroanilide released into the solution was quantitated by spectrophotometry (405 nm).
A control measurement was conducted in the same manner, using the control 10% solution instead of the compound solution.
This measurement yielded the enzyme reaction inhibition in the presence of 100 μmol/L to 0.1 nmol/L of each compound of the invention.
The enzyme reaction inhibition at each compound concentration was subjected to non-linear regression analysis, and the IC50 value for inhibitory activity of each compound against clotting factor VIIa was calculated.

T1 sequence (P08709 213-466 limits assumed): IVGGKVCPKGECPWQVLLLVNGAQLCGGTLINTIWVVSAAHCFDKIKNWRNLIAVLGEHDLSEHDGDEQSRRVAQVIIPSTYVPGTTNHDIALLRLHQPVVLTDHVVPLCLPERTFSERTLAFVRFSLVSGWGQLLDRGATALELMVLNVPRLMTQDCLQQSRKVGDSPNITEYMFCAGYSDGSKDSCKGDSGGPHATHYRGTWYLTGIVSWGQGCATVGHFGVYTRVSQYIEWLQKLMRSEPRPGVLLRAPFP
T1 sequence (P08709 61-212 limits assumed): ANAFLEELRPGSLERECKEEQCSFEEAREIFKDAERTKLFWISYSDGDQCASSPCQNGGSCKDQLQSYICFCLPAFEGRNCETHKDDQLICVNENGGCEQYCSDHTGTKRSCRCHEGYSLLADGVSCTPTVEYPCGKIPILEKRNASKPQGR
T1 sequence (P13726 33-295 partner): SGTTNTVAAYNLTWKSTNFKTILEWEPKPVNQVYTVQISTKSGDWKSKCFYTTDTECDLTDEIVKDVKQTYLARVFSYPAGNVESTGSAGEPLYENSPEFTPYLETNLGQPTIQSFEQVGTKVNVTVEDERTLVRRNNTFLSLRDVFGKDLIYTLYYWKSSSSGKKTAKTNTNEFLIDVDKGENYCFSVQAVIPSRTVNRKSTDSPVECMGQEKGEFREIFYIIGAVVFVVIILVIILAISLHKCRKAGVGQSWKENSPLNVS

| IC50 [nM] | SMILES |
| --- | --- |
| 8.9 | CCOc1cc(C(Nc2ccc(C(=N)N)cc2)c2nn(-c3ncccn3)c(=O)[nH]2)cc2c1OCOC2 (racemic) [Example 28, (R) and (S)-4-{[(8-ethoxy-4H-benzo[1,3]dioxin-6-yl)-(5-oxo-1-pyrimidin-2-yl-4,5-dihydro-1H-[1,2,4]triazol-3-yl)methyl]amino}benzamidine acetate] |
| 2.7 | COc1cc(C(Nc2ccc(C(=N)N)cc2)c2nn(-c3ncccc3F)c(=O)[nH]2)cc2c1OCCC2 (racemic) [Example 29, (R) and (S)-4-({[1-(3-fluoropyridin-2-yl)-5-oxo-4,5-dihydro-1H-[1,2,4]triazol-3-yl]-(8-methoxychroman-6-yl)methyl}amino)benzamidine acetate] |
| 3.9 | COc1cc(C(Nc2ccc(C(=N)N)cc2)c2nn(-c3ncccc3F)c(=O)[nH]2)cc2c1OCCCO2 (racemic) [Example 30, (R) and (S)-4-({[1-(3-fluoropyridin-2-yl)-5-oxo-4,5-dihydro-1H-[1,2,4]triazol-3-yl]-(9-methoxy-3,4-dihydro-2H-benzo[b][1,4]dioxepin-7-yl)methyl}amino)benzamidine acetate] |
| 7.1 | COc1cc(C(Nc2ccc(C(=N)N)cc2)c2nn(-c3ncccn3)c(=O)[nH]2)cc2c1OCC2 (racemic) [Example 31, (R) and (S)-4-{[(7-methoxy-2,3-dihydrobenzofuran-5-yl)-(5-oxo-1-pyrimidin-2-yl-4,5-dihydro-1H-[1,2,4]triazol-3-yl)methyl]amino}benzamidine acetate] |
| 11.6 | COc1cc(C(Nc2ccc(C(=N)N)cc2)c2nn(-c3ncccn3)c(=O)[nH]2)c(F)c2c1OCOC2 (racemic) [Example 32, (R) and (S)-4-{[(5-fluoro-8-methoxy-4H-benzo[1,3]dioxin-6-yl)-(5-oxo-1-pyrimidin-2-yl-4,5-dihydro-1H-[1,2,4]triazol-3-yl)methyl]amino}benzamidine acetate] |
| 6.7 | COc1cc(C(Nc2ccc(C(=N)N)cc2)c2nn(-c3ncccn3)c(=O)[nH]2)c(F)c2c1OCCC2 (racemic) [Example 33, (R) and (S)-4-{[(5-fluoro-8-methoxychroman-6-yl)-(5-oxo-1-pyrimidin-2-yl-4,5-dihydro-1H-[1,2,4]triazol-3-yl)methyl]amino}benzamidine acetate] |
| 3 | COc1cc(C(Nc2ccc(C(=N)N)cc2)c2nn(-c3ncccc3N)c(=O)[nH]2)cc2c1OCCCO2 (racemic) [Example 34, (R) and (S)-4-({[1-(3-aminopyridin-2-yl)-5-oxo-4,5-dihydro-1H-[1,2,4]triazol-3-yl]-(9-methoxy-3,4-dihydro-2H-benzo[b][1,4]dioxepin-7-yl)methyl}amino)benzamidine acetate] |
| 6.8 | CCOc1cc(C(Nc2ccc(C(=N)N)cc2)c2nn(-c3ncccc3N)c(=O)[nH]2)ccc1OC (racemic) [Example 35, (R) and (S)-4-({[1-(3-aminopyridin-2-yl)-5-oxo-4,5-dihydro-1H-[1,2,4]triazol-3-yl]-(3-ethoxy-4-methoxyphenyl)methyl}amino)benzamidine acetate] |
| 3.8 | COc1ccc(C(Nc2ccc(C(=N)N)cc2)c2nn(-c3ccccc3C(=O)O)c(=O)[nH]2)cc1OC (racemic) [Example 36, (R) and (S)-2-{3-[(4-carbamimidoylphenylamino)-(3,4-dimethoxyphenyl)methyl]-5-oxo-4,5-dihydro-[1,2,4]triazol-1-yl}benzoic acid acetate] |
| 4.4 | COc1ccc(C(Nc2ccc(C(=N)N)c(F)c2)c2nn(-c3ccccc3C(=O)O)c(=O)[nH]2)cc1OC (racemic) [Example 37, (R) and (S)-2-{3-[(4-carbamimidoyl-3-fluorophenylamino)-(3,4-dimethoxyphenyl)methyl]-5-oxo-4,5-dihydro-[1,2,4]triazol-1-yl}benzoic acid acetate] |
| 7.4 | COc1cc(C(Nc2ccc(C(=N)N)cc2)c2nn(-c3ccccc3C(=O)O)c(=O)[nH]2)cc(C)n1 (racemic) [Example 38, (R) and (S)-2-{3-[(4-carbamimidoylphenylamino)-(2-methoxy-6-methylpyridin-4-yl)methyl]-5-oxo-4,5-dihydro-[1,2,4]triazol-1-yl}benzoic acid acetate] |
| 20.6 | COc1cc(C(Nc2ccc(C(=N)N)cc2)c2nn(-c3ncccn3)c(=O)[nH]2)cc(C)n1 (racemic) [Example 39, (R) and (S)-4-{[(2-methoxy-6-methyl-pyridin-4-yl)-(5-oxo-1-pyrimidin-2-yl-4,5-dihydro-1H-[1,2,4]triazol-3-yl)methyl]amino}benzamidine acetate] |
| 9 | COc1cc(C(Nc2ccc(C(=N)N)cc2)c2nn(-c3ncccn3)c(=O)[nH]2)c(F)c2c1OCC2 (racemic) [Example 40, (R) and (S)-4-{[(4-fluoro-7-methoxy-2,3-dihydrobenzofuran-5-yl)-(5-oxo-1-pyrimidin-2-yl-4,5-dihydro-1H-[1,2,4]triazol-3-yl)methyl]amino}benzamidine acetate] |
| 6.4 | COc1cc(C(Nc2ccc(C(=N)N)cc2)c2nn(-c3ncccn3)c(=O)[nH]2)c(F)c2c1OCCO2 (racemic) [Example 41, (R) and (S)-4-{[(5-fluoro-8-methoxy-2,3-dihydrobenzo[1,4]dioxin-6-yl)-(5-oxo-1-pyrimidin-2-yl-4,5-dihydro-1H-[1,2,4]triazol-3-yl)methyl]amino}benzamidine acetate] |
| 3.6 | COc1cc(C(Nc2ccc(C(=N)N)cc2)c2nn(-c3ncccn3)c(=O)[nH]2)c(F)c2c1OCCCO2 (racemic) [Example 42, (R) and (S)-4-{[(6-fluoro-9-methoxy-3,4-dihydro-2H-benzo[b][1,4]dioxepin-7-yl)-(5-oxo-1-pyrimidin-2-yl-4,5-dihydro-1H-[1,2,4]triazol-3-yl)methyl]amino}benzamidine acetate] |
| 7.9 | Cc1cc(OC2CCN(C)CC2)cc(C(Nc2ccc(C(=N)N)cc2)c2nn(-c3ncccn3)c(=O)[nH]2)c1 (racemic) [Example 43, (R) and (S)-4-({[3-methyl-5-(1-methylpiperidin-4-yloxy)phenyl]-(5-oxo-1-pyrimidin-2-yl-4,5-dihydro-1H-[1,2,4]triazol-3-yl)methyl}amino)benzamidine diacetate] |
| 25.7 | Cc1cc(OCC(=O)N(C)C)cc(C(Nc2ccc(C(=N)N)cc2)c2nn(-c3ncccn3)c(=O)[nH]2)c1 (racemic) [Example 44, (R) and (S)-2-{3-[(4-carbamimidoylphenylamino)-(5-oxo-1-pyrimidin-2-yl-4,5-dihydro-1H-[1,2,4]triazol-3-yl)methyl]-5-methylphenoxy}-N,N-dimethylacetamide acetate] |
| 1.3 | C=Cc1cc(O[C@H]2CCOC2)cc(C(Nc2ccc(C(=N)N)cc2)c2nn(-c3ncccn3)c(=O)[nH]2)c1 (mixture of isomers) [Example 45(1), 4-[((R) and (S)-(5-oxo-1-pyrimidin-2-yl-4,5-dihydro-1H-[1,2,4]triazol-3-yl)-{3-[(S)-(tetrahydrofuran-3-yl)oxy]-5-vinylphenyl}methyl)amino]benzamidine acetate] |
| 1.5 | C#Cc1cc(O[C@H]2CCOC2)cc(C(Nc2ccc(C(=N)N)cc2)c2nn(-c3ncccn3)c(=O)[nH]2)c1 (mixture of isomers) [Example 45(2), 4-[((R) and (S)-{3-ethynyl-5-[(S)-(tetrahydrofuran-3-yl)oxy]phenyl}-(5-oxo-1-pyrimidin-2-yl-4,5-dihydro-1H-[1,2,4]triazol-3-yl)methyl)amino]benzamidine acetate] |
